Experimental data taken from patent US20160108027A1, “SUBSTITUTED BENZOXAZOLES” (BAYER PHARMA AKTIENGESELLSCHAFT, priority 2013, published 2016).

Assays:
thrombin [1] = molecular target: T1, thrombin (Homo sapiens, UniProt P00734); experiment: Determination of the thrombin-inhibitory activity in plasma samples (ecarin-activated); assay type: biochemical; settings: citrate plasma, ecarin activation, fluorogenic thrombin substrate; in some cases means of individual determinations
Procedure, shortened: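 Citrate plasma activated with ecarin (final 20 mU per reaction) in Ca buffer (Hepes, NaCl, CaCl2, PEG), with compound diluted from DMSO into water. Fluorogenic thrombin substrate at final 50 μmol/l; fluorescence (ex 360/em 465 nm) read each minute for 20 minutes, with buffer-only unstimulated control.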

thrombin [2] = molecular target: T1, thrombin; experiment: Measurement of the thrombin inhibition in buffer; assay type: biochemical; settings: human thrombin 0.06 nmol/l in Tris buffer pH 7.4, 22° C., substrate Boc-Asp(OBzl)-Pro-Arg-AMC; in some cases means of individual determinations
Procedure, shortened: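 Compound pre-incubated 15 min at 22° C with 0.06 nmol/l human thrombin in 50 mmol/l Tris, 100 mmol/l NaCl, 0.1% BSA, pH 7.4, then 5 μmol/l Boc-Asp(OBzl)-Pro-Arg-AMC added for 30 min. AMC fluorescence read at 360/460 nm against DMSO controls; IC50 from concentration–activity curves.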

Row | Compound | IC50 (thrombin [1]) | IC50 (thrombin [2])
1 | COc1cc(C(=O)N2CC(C)CCC2C2(O)CC2)cc2nc(NCc3cc(Cl)ccn3)oc12 (single isomer, unassigned) [Example 89, (2-{[(4-Chloropyridin-2-yl)methyl]amino}-7-methoxy-1,3-benzoxazol-5-yl) [2-(1-hydroxycyclopropyl)-5-methylpiperidin-1-yl]methanone] | 35 nM | 17 nM
2 | COc1cc(C(=O)N2CC(C)CCC2C2(O)CC2)cc2nc(NCc3cc(Cl)ccn3)oc12 (single isomer, unassigned) [Example 90, (2-{[(4-Chloropyridin-2-yl)methyl]amino}-7-methoxy-1,3-benzoxazol-5-yl) [2-(1-hydroxycyclopropyl)-5-methylpiperidin-1-yl]methanone] | 94 nM | 28 nM
3 | COc1cc(C(=O)N2CC(C)CCC2C2(O)CC2)cc2nc(NCc3cc(Cl)ccn3)oc12 (single isomer, unassigned) [Example 91, (2-{[(4-Chloropyridin-2-yl)methyl]amino}-7-methoxy-1,3-benzoxazol-5-yl) [2-(1-hydroxycyclopropyl)-5-methylpiperidine-1-yl]methanone] | 24 nM | 13 nM
4 | COc1cc(C(=O)N2CC(C)NC(=O)C2CC#N)cc2nc(NCc3cc(Cl)ccn3)oc12 (single isomer, unassigned) [Example 92, {1-[(2-{[(4-Chloropyridin-2-yl)methyl]amino}-7-methoxy-1,3-benzoxazol-5-yl)carbonyl]-5-methyl-3-oxopiperazin-2-yl}acetonitrile] | 148 nM | 96 nM
5 | COc1cc(C(=O)N2CC(C)(C)OCC2C(C)(C)O)cc2nc(NCc3cc(Cl)ccn3)oc12 (single isomer, unassigned) [Example 93, (2-{[(4-Chloropyridin-2-yl)methyl]amino}-7-methoxy-1,3-benzoxazol-5-yl) [5-(2-hydroxypropan-2-yl)-2,2-dimethylmorpholin-4-yl]methanone] | 17 nM | 8.8 nM
6 | COc1cc(C(=O)N2CC(C)(C)OCC2C2(O)CC2)cc2nc(NCc3cc(Cl)ccn3)oc12 (single isomer, unassigned) [Example 94, (2-{[(4-Chloropyridin-2-yl)methyl]amino}-7-methoxy-1,3-benzoxazol-5-yl) [5-(1-hydroxycyclopropyl)-2,2-dimethylmorpholin-4-yl]methanone] | 28 nM | 18 nM
7 | COc1cc(C(=O)N2CC(C)(C)OCC2C(C)O)cc2nc(NCc3cc(Cl)ccn3)oc12 (single isomer, unassigned) [Example 95, (2-{[(4-Chloropyridin-2-yl)methyl]amino}-7-methoxy-1,3-benzoxazol-5-yl) [5-(1-hydroxyethyl)-2,2-dimethylmorpholin-4-yl]methanone] | 13 nM | 6.8 nM
8 | COc1cc(C(=O)N2CC(C)(C)OCC2C(C)O)cc2nc(NCc3cc(Cl)ccn3)oc12 (single isomer, unassigned) [Example 96, (2-{[(4-Chloropyridin-2-yl)methyl]amino}-7-methoxy-1,3-benzoxazol-5-yl) [5-(1-hydroxyethyl)-2,2-dimethylmorpholin-4-yl]methanone] | 43 nM | 41 nM
9 | CCO[C@@H]1CC(CO)N(C(=O)c2cc(OC)c3oc(NCc4cc(Cl)ccn4)nc3c2)C1 (stereo partly drawn) [Example 1, (2-{[(4-Chloropyridin-2-yl)methyl]amino}-7-methoxy-1,3-benzoxazol-5-yl)[(4R)-4-ethoxy-2-(hydroxymethyl)pyrrolidin-1-yl]methanone] | 25 nM | 15 nM
10 | CCO[C@@H]1CC(CO)N(C(=O)c2cc(OC)c3oc(NC(C)c4cc(Cl)ccn4)nc3c2)C1 (stereo partly drawn) [Example 4, (2-{[1-(4-Chloropyridin-2-yl)ethyl]amino}-7-methoxy-1,3-benzoxazol-5-yl)[(4R)-4-ethoxy-2-(hydroxymethyl)pyrrolidin-1-yl]methanone] | 66 nM | 39 nM
